Source: patent US7632972B2, “Compounds and methods for treatment of cancer and modulation of programmed cell death for melanoma and other cancer cells” (The Board of Trustees of the University of Illionis, priority 2003, dated 2009)

How the values were obtained:
Assay type in all cases: cell-based, human
[1] = test system: RPMI-8226; assay: NCI 60 cell line screen (SRB), Leukemia
Source text: (§1) The operation of this screen utilizes 60 different human tumor cell lines, representing leukemia, melanoma and cancers of the lung, colon, brain, ovary, breast, prostate, and kidney. The aim is to prioritize for further evaluation, synthetic compounds or natural product samples showing selective growth inhibition or cell killing of particular tumor cell lines. This screen is unique in that the complexity of a 60 cell line dose response produced by a given compound results in a biological response pattern which can be utilized in pattern recognition algorithms. Using these algorithms, it is possible to assign a putative mechanism of action to a test compound, or to determine that the response pattern is unique and not similar to that of any of the standard prototype compounds included in the NCl database (see DTP Overview tab). In addition, following characterization of various cellular molecular targets in the 60 cell lines, it may be possible to select compounds most likely to interact with a specific molecular target.
(§2) The human tumor cell lines of the cancer screening panel are grown in RPMI 1640 medium containing 5% fetal bovine serum and 2 mM L-glutamine. For a typical screening experiment, cells are inoculated into 96 well microtiter plates in 100 μL at plating densities ranging from 5,000 to 40,000 cells/well depending on the doubling time of individual cell lines. After cell inoculation, the microtiter plates are incubated at 37° C., 5% CO2, 95% air and 100% relative humidity for 24 h prior to addition of experimental drugs.
(§3) After 24 h, two plates of each cell line are fixed in situ with TCA, to represent a measurement of the cell population for each cell line at the time of drug addition (Tz). Experimental drugs are solubilized in dimethyl sulfoxide at 400-fold the desired final maximum test concentration and stored frozen prior to use. At the time of drug addition, an aliquot of frozen concentrate is thawed and diluted to twice the desired final maximum test concentration with complete medium containing 50 μg/ml gentamicin. Additional four, 10-fold or ½ log serial dilutions are made to provide a total of five drug concentrations plus control. Aliquots of 100 μl of these different drug dilutions are added to the appropriate microtiter wells already containing 100 μl of medium, resulting in the required final drug concentrations.
(§4) Following drug addition, the plates are incubated for an additional 48 h at 37° C., 5% CO2, 95% air, and 100% relative humidity. For adherent cells, the assay is terminated by the addition of cold TCA. Cells are fixed in situ by the gentle addition of 50 μl of cold 50% (w/v) TCA (final concentration, 10% TCA) and incubated for 60 minutes at 4° C. The supernatant is discarded, and the plates are washed five times with tap water and air dried. Sulforhodamine B (SRB) solution (100 μl) at 0.4% (w/v) in 1% acetic acid is added to each well, and plates are incubated for 10 minutes at room temperature. After staining, unbound dye is removed by washing five times with 1% acetic acid and the plates are air dried. Bound stain is subsequently solubilized with 10 mM trizma base, and the absorbance is read on an automated plate reader at a wavelength of 515 nm. For suspension cells, the methodology is the same except that the assay is terminated by fixing settled cells at the bottom of the wells by gently adding 50 μl of 80% TCA (final concentration, 16% TCA). Using the seven absorbance measurements [time zero, (Tz), control growth, (C), and test growth in the presence of drug at the five concentration levels (Ti)], the percentage growth is calculated at each of the drug concentrations levels. Percentage growth inhibition is calculated as: [(Ti−Tz)/(C−Tz)]×100 for concentrations for which Ti>/=Tz [(Ti−Tz)/Tz]×100 for concentrations for which Ti<Tz.
(§5) Three dose response parameters are calculated for each experimental agent. […]

[2] = test system: MOLT-4; assay: NCI 60 cell line screen (SRB), Leukemia
Source text: as §1, §2, §3, §4, §5

[3] = test system: MDA-MB-231/ATCC; assay: NCI 60 cell line screen (SRB), Breast Cancer
Source text: as §1, §2, §3, §4, §5

[4] = test system: MCF7; assay: NCI 60 cell line screen (SRB), Breast Cancer
Source text: as §1, §2, §3, §4, §5

[5] = test system: NCI/ADR-RES; assay: NCI 60 cell line screen (SRB), Breast Cancer
Source text: as §1, §2, §3, §4, §5

[6] = test system: BT-549; assay: NCI 60 cell line screen (SRB), Breast Cancer
Source text: as §1, §2, §3, §4, §5

[7] = test system: HS 578T; assay: NCI 60 cell line screen (SRB), Breast Cancer
Source text: as §1, §2, §3, §4, §5

[8] = test system: T-47D; assay: NCI 60 cell line screen (SRB), Breast Cancer
Source text: as §1, §2, §3, §4, §5

[9] = test system: MDA-MB-435; assay: NCI 60 cell line screen (SRB), Breast Cancer
Source text: as §1, §2, §3, §4, §5

[10] = read-out: LC50 (the source's name)

SMILES: COc1cccc(CCNC(=O)CC(c2ccccc2)(c2ccccc2)c2ccccc2)c1 [Compound Z3]
- GI50 ([1]; RPMI-8226): 4.98 µM
- TGI ([1]; RPMI-8226): >1.00E−04
- Percent Growth ([1]; RPMI-8226, Log10 Concentration −4.0): 24%
- Percent Growth ([1]; RPMI-8226, Log10 Concentration −5.0): 29%
- Percent Growth ([1]; RPMI-8226, Log10 Concentration −6.0): 98%
- Percent Growth ([1]; RPMI-8226, Log10 Concentration −7.0): 100%
- Percent Growth ([1]; RPMI-8226, Log10 Concentration −8.0): 92%
- CC50 ([1]; RPMI-8226, read-out: LC50 (the source's name)): > 100 µM
- GI50 ([2]; MOLT-4): 6.01 µM
- TGI ([2]; MOLT-4): >1.00E−04
- Percent Growth ([2]; MOLT-4, Log10 Concentration −4.0): 33%
- Percent Growth ([2]; MOLT-4, Log10 Concentration −5.0): 34%
- Percent Growth ([2]; MOLT-4, Log10 Concentration −6.0): 107%
- Percent Growth ([2]; MOLT-4, Log10 Concentration −7.0): 123%
- Percent Growth ([2]; MOLT-4, Log10 Concentration −8.0): 116%
- CC50 ([2]; MOLT-4, read-out: LC50 (the source's name)): > 100 µM
- GI50 [3]: > 100 µM
- TGI [3]: >1.00E−04
- Percent Growth ([3]; Log10 Concentration −4.0): 147%
- Percent Growth ([3]; Log10 Concentration −5.0): 75%
- Percent Growth ([3]; Log10 Concentration −6.0): 59%
- Percent Growth ([3]; Log10 Concentration −7.0): 69%
- Percent Growth ([3]; Log10 Concentration −8.0): 68%
- CC50 [3, 10]: > 100 µM
- GI50 ([4]; MCF7): 21.5 µM
- TGI ([4]; MCF7): >1.00E−04
- Percent Growth ([4]; MCF7, Log10 Concentration −4.0): 31%
- Percent Growth ([4]; MCF7, Log10 Concentration −5.0): 60%
- Percent Growth ([4]; MCF7, Log10 Concentration −6.0): 85%
- Percent Growth ([4]; MCF7, Log10 Concentration −7.0): 116%
- Percent Growth ([4]; MCF7, Log10 Concentration −8.0): 91%
- CC50 ([4]; MCF7, read-out: LC50 (the source's name)): > 100 µM
- GI50 [5]: 5.26 µM
- TGI [5]: >1.00E−04
- Percent Growth ([5]; Log10 Concentration −4.0): 27%
- Percent Growth ([5]; Log10 Concentration −5.0): 42%
- Percent Growth ([5]; Log10 Concentration −6.0): 69%
- Percent Growth ([5]; Log10 Concentration −7.0): 93%
- Percent Growth ([5]; Log10 Concentration −8.0): 69%
- CC50 [5, 10]: > 100 µM
- GI50 ([6]; BT-549): > 100 µM
- TGI ([6]; BT-549): >1.00E−04
- Percent Growth ([6]; BT-549, Log10 Concentration −4.0): 69%
- Percent Growth ([6]; BT-549, Log10 Concentration −5.0): 81%
- Percent Growth ([6]; BT-549, Log10 Concentration −6.0): 107%
- Percent Growth ([6]; BT-549, Log10 Concentration −7.0): 126%
- Percent Growth ([6]; BT-549, Log10 Concentration −8.0): 100%
- CC50 ([6]; BT-549, read-out: LC50 (the source's name)): > 100 µM
- GI50 ([7]; MS 578T): > 100 µM
- TGI ([7]; MS 578T): >1.00E−04
- Percent Growth ([7]; MS 578T, Log10 Concentration −4.0): 55%
- Percent Growth ([7]; MS 578T, Log10 Concentration −5.0): 85%
- Percent Growth ([7]; MS 578T, Log10 Concentration −6.0): 101%
- Percent Growth ([7]; MS 578T, Log10 Concentration −7.0): 126%
- Percent Growth ([7]; MS 578T, Log10 Concentration −8.0): 101%
- CC50 [7, 10]: > 100 µM
- GI50 [8]: > 100 µM
- TGI [8]: >1.00E−04
- Percent Growth ([8]; Log10 Concentration −4.0): 84%
- Percent Growth ([8]; Log10 Concentration −5.0): 55%
- Percent Growth ([8]; Log10 Concentration −6.0): 78%
- Percent Growth ([8]; Log10 Concentration −7.0): 108%
- Percent Growth ([8]; Log10 Concentration −8.0): 78%
- CC50 [8, 10]: > 100 µM
- GI50 ([9]; MDA-MB-435): 6.5 µM
- TGI ([9]; MDA-MB-435): >1.00E−04
- Percent Growth ([9]; MDA-MB-435, Log10 Concentration −4.0): 28%
- Percent Growth ([9]; MDA-MB-435, Log10 Concentration −5.0): 40%
- Percent Growth ([9]; MDA-MB-435, Log10 Concentration −6.0): 91%
- Percent Growth ([9]; MDA-MB-435, Log10 Concentration −7.0): 109%
- Percent Growth ([9]; MDA-MB-435, Log10 Concentration −8.0): 92%
- CC50 ([9]; MDA-MB-435, read-out: LC50 (the source's name)): > 100 µM
